# “Also recorded” adds a separate entry of the source.
# Experiments:
# [1] = system: β-arrestin2–Galr2 interaction (Galr2); experiment: β-Arrestin2 recruitment using NanoBit technology; assay type: cell-based, human; conditions: for Log(τ/KA), β-Arrestin2: HEK293 cells, luminescence at 5 min after agonist, operational model (Eq. 2)
# Source text: The β-arrestin recruitment assays were developed based on a structural complementation assay using NanoBit technology. Briefly, NanoBit technology is a system that basically consists of Nano luciferase (Nluc), which is a small protein that catalyzes a bright luminescent reaction. To create a complementation system, Nluc was separated into two subunits that individually produce very little enzymatic activity. […] Because of this low affinity for each other, these two fragments can bind when they are in close proximity. The interaction between the LgBit and the SmBit can be driven by the interactions of the fusion partners, allowing them to study protein–protein interaction in live cells. As the interaction is reversible, the association and dissociation can be monitored. There is no lag time in the loss of luminescence, and so the immediate detection allows for accurate assessment of temporal dynamics. […] To accurately monitor β-arrestin recruitment, four plasmid combinations between LgBit and SmBit with the fusion partners Galr2 and β-arrestins were screened. The plasmid combination with the highest luminescence signal was chosen for further studies (Fig. 2a, Supplementary Fig. 1). Using data points at 5 min after ligand stimulation, we obtained dose–response curves that corresponded to β-arrestin1/2 recruitment (Fig. 2d, e, Supplementary Fig. 2).
# Fig. 2 The effect of different endogenous ligands in β-arrestin1/2 recruitment. a Schematic representation of the structural complementation assay used to monitor β-arrestin1/2–Galr2 interactions. Kinetic traces of β-arrestin1 (b) and β-arrestin2 (c) recruitment after Galr2 activation with 1 μM of three different agonists. Dose–response curves for recruitment of β-arrestin1 (d), and β-arrestin2 (e). Luminescence signal intensity obtained at 5 min after agonist stimulation was measured. […] The results are expressed as mean ± s.e.m. of three experiments performed in triplicate; each triplicate was averaged before calculating the s.e.m. The arrows indicate the time at which the cells were treated with the different ligands
# (§1) Quantification of bias between each pathway was performed using Galanin as a reference ligand. All incubations for the different signaling assays were performed in serum-free medium to prevent peptide degradation.
# HEK293 cells were obtained from the American Type Culture Collection (ATCC, CRL-1573; Manassas, VA, USA). […] After a 10-min incubation, 25 μl substrate (furimazine) was added and once every minute subsequent luminescence measurements were taken for 10 min for signal stabilization. A total of 10 μl ligand was then added to each well and luminescence measurements were recorded immediately and once every minute for 1 h (Synergy 2 Multi-Mode Microplate Reader BioTek, Winooski, VT, USA).
# [2] = system: Galr2; experiment: Galr2 internalization assay based on HiBiT technology; assay type: cell-based, human; conditions: HEK293 cells; agonist 30 min; two independent experiments in triplicate
# Description: The HiBiT protein tagging system, like NanoBiT technology, consists of two subunits: the large fragment (LgBiT) with 156 amino acids and the small fragment of Nluc (SmBiT-High-affinity) with only 11 amino acids that has a very high affinity to LgBit. To quantify Galr2 at the cell surface, cells expressing Galr2 tagged with the SmBiT-High-affinity were treated with cell-impermeable LgBiT along with the Nluc substrate furimazine. SmBiT-High-affinity-Galr2 on the cell surface binds to LgBiT which produces a luminescent signal, while SmBiT-High-affinity-Galr2 inside the cells cannot bind to LgBiT (Fig. 4a).
# Fig. 4 Internalization of Galr2. a Schematic representation of the internalization assay. […] Before ligand stimulation, cells were pretreated with 30 μM Cmpd101 (a GRK2/3 inhibitor) for 30 min, 25 μM PitStop 2 (a Clathrin inhibitor) for 15 min, and 80 μM Dynasore (a Dynamin inhibitor) for 40 min. […] Remaining cell surface receptors were determined by measuring the luminescent signal produced by the binding between LgBiT and the Galr2-SmBiT-High affinity. Each data point represents mean ± s. e. m. of two independent experiments performed in triplicate
# as §1
# Internalization assays were performed using the Nano-Glo HiBiT extracellular detection system acquired from Promega Corporation (Cat. No. N2421). The day before transfection, HEK293 cells were seeded in 96-well plates at a density of 2.5 × 10^4 cells per well. The following day, cells were transfected with a mixture prepared containing 0.5 ng of SmBiT-high-affinity-Galr2 construct and 0.2 μl Lipofectamine 2000 (Invitrogen) added to each well. […] Then luminescence values were recorded immediately (Synergy 2 Multi-Mode Microplate Reader BioTek). […]
# [3] = mean ± s.e.m. of three experiments in triplicate
Molecule,"Log(τ/KA), β-Arrestin2 [1, 3]","ΔLog(τ/KA), β-Arrestin2 ([1]; normalized to Galanin (reference agonist), in parenthesis, mean ± s.e.m. of three experiments in triplicate)",Galr2 internalization (decrease of cell-surface luminescent signal) [2],"agonism in β-arrestin2 recruitment ([1]; dose–response, data at 5 min after ligand stimulation, compared with Galanin)"
Galanin [reference compound],7.20 ± 0.02,0.00 ± 0.02,significantly decreased the luminescent signal in a dose-dependent manner; also recorded: efficiently induced internalization in a dose-dependent manner,–
"Spexin (peptide, UniProt Q9BT56 27-116, looked up, Spexin, endogenous peptide ligand of Galr2 and Galr3; synthesized by AnyGen) Spexin: APQRLLERRNWTPQAMLYLKGAQGRRFISDQSRRKDLSDRPLPERRSPNPQLLTIPEAATILLASLQKSPEDEEKNFDQTRFLEDSLLNW",6.40 ± 0.03,–,marginally induce internalization of the receptor; also recorded: Galr2 internalization was not detected; also recorded: did not detect Galr2 internalization,partial agonists
